Results from patent US12453709B2, “Compositions and methods for treating autism” (priority 2013, dated 2025).

Key:
[1] = tested on: patients qualified under the DSM-5 definition of autism; experiment: Example 4: Aberrant Behavior Checklist-Community (ABC-C); type: in vivo, human; details: for ABC irritability / ABC lethargy / ABC speech / ABC stereotypy / ABC hyperactivity / ABC TOTAL: PT RS; for ABC irritability: initial 3; for ABC lethargy: initial 6; for ABC speech: initial 8; for ABC TOTAL: initial 53
Procedure: α-methyl-DL tyrosine (AMPT) was administered to 3 patients. This group of patients was qualified under the DSM-5 definition of autism and treated. The Aberrant Behavior Checklist-Community (ABC-C), Autism Diagnostic Observation Schedule (ADOS), Conners Parent Rating Scale (CPRS), and General Clinical Impressions scale were used to assess the disease. Videos were taken at each visit.

[2] = tested on: male patients diagnosed with autism; experiment: Study HT 02-121: Clinical Global Impression (CGI) rating scales; type: in vivo, human; details: for CGI-I Mean Change from Baseline / CGI-I Treatment effect versus placebo / CGI-I change from Baseline, median / CGI-S Mean Change from Baseline / CGI-S Treatment effect versus placebo / CGI-S change from Baseline, median: Week 4/LOCF
Procedure: This clinical study was a randomized double-blind, placebo-controlled two-cohort, 4-week dose-escalation study that incorporated two open-label treatment groups to assess the safety and efficacy of L1-79 100 mg and 200 mg TID in male patients between the ages of […] years of age diagnosed with autism. The first cohort of 20 patients was comprised of three groups of patients: The first group of five patients received open-label L1-79 100 mg TID and underwent PK and EKG assessments. The remaining two groups in this cohort consisted of 15 patients randomized on a 2:1 basis to receive L1-79 100 mg TID or placebo. The PK and safety data from the open-label L1-79 100 mg TID group was submitted to FDA for review and acceptance before the second cohort was enrolled. The second cohort was procedurally identical to the first. The second cohort of 20 patients was comprised of the same three groups of patients but a dose of 200 mg TID was used instead of 100 mg TID. The key inclusion criteria were as follows: (1) males between 13 and 21 years of age, (2) DSM-5 compliant diagnosis of autism spectrum disorder, confirmed by the Autistic Diagnosis Interview Review (ADIR), and by an ADOS-2 score consistent with a diagnosis of autism, (3) must have been stable on no more than one concomitant medication and no planned changes in psychosocial interventions during the study.
The primary efficacy endpoint was the determination of the clinical improvement by the investigator as documented by the Clinical Global Impression (CGI) rating scales. Additional efficacy endpoints included: (1) changes from baseline in the Socialization and Communication Domains of the Vineland Adaptive Behavior Scales, Second Edition (VABS II) parent/caregiver rating form, (2) changes from baseline in the ADOS-2 Total Score and subscores, (3) changes in the Social Responsiveness Scale, Second Edition (SRS-2) Total Score and subscales, (4) changes in the ABC-C domains, (5) changes in the Repetitive Behavior Scale-Revised (RBS-R) Total Score and subscales. Given the exploratory design of this study only descriptive statistics were planned. […]
Responder definitions for CGI-S were defined as improvement only (instead of improvement or no change) since, unlike the other measures which were performed weekly, the CGI-S requires the clinician to give an overall assessment of the patients' clinical symptom severity based on all of the outcome measures and their movement over the entirety of the study.

SMILES: CC(N)(Cc1ccc(O)cc1)C(=O)O (racemic) [L1-79, α-methyl-DL-tyrosine]
- ABC-C speech ([1]; PT LR, Day 7, initial 5): 7
- ABC-C stereotypy ([1]; PT LR, Day 7, initial 13): 5
- ABC-C irritability ([1]; PT LR, Day 7, initial 21): 16
- ABC-C lethargy ([1]; PT LR, Day 7, initial 31): 12
- ABC-C hyperactivity ([1]; PT LR, Day 7, initial 34): 31
- ABC-C TOTAL ([1]; PT LR, Day 7, initial 114): 71
- ABC-C speech ([1]; PT LR, Day 14, initial 5): 7
- ABC-C stereotypy ([1]; PT LR, Day 14, initial 13): 0
- ABC-C irritability ([1]; PT LR, Day 14, initial 21): 16
- ABC-C lethargy ([1]; PT LR, Day 14, initial 31): 8
- ABC-C hyperactivity ([1]; PT LR, Day 14, initial 34): 24
- ABC-C TOTAL ([1]; PT LR, Day 14, initial 114): 55
- ABC-C speech ([1]; PT LR, Day 21, initial 5): 7
- ABC-C stereotypy ([1]; PT LR, Day 21, initial 13): 0
- ABC-C irritability ([1]; PT LR, Day 21, initial 21): 16
- ABC-C lethargy ([1]; PT LR, Day 21, initial 31): 7
- ABC-C hyperactivity ([1]; PT LR, Day 21, initial 34): 23
- ABC-C TOTAL ([1]; PT LR, Day 21, initial 114): 53
- ABC-C speech ([1]; PT LR, Day 28, initial 5): 7
- ABC-C stereotypy ([1]; PT LR, Day 28, initial 13): 0
- ABC-C irritability ([1]; PT LR, Day 28, initial 21): 16
- ABC-C lethargy ([1]; PT LR, Day 28, initial 31): 7
- ABC-C hyperactivity ([1]; PT LR, Day 28, initial 34): 23
- ABC-C TOTAL ([1]; PT LR, Day 28, initial 114): 53
- ABC irritability ([1]; Day 7): 3
- ABC lethargy ([1]; Day 7): 3
- ABC speech ([1]; Day 7): 3
- ABC stereotypy ([1]; Day 7, initial 16): 11
- ABC hyperactivity ([1]; Day 7, initial 20): 8
- ABC TOTAL ([1]; Day 7): 28
- ABC irritability ([1]; Day 14): 1
- ABC lethargy ([1]; Day 14): 1
- ABC speech ([1]; Day 14): 3
- ABC stereotypy ([1]; Day 14, initial 16): 9
- ABC hyperactivity ([1]; Day 14, initial 20): 6
- ABC TOTAL ([1]; Day 14): 20
- ABC irritability ([1]; Day 21): 1
- ABC lethargy ([1]; Day 21): 1
- ABC speech ([1]; Day 21): 3
- ABC stereotypy ([1]; Day 21, initial 16): 9
- ABC hyperactivity ([1]; Day 21, initial 20): 6
- ABC TOTAL ([1]; Day 21): 20
- ABC irritability ([1]; Day 28): 1
- ABC lethargy ([1]; Day 28): 1
- ABC speech ([1]; Day 28): 3
- ABC stereotypy ([1]; Day 28, initial 16): 9
- ABC hyperactivity ([1]; Day 28, initial 20): 6
- ABC TOTAL ([1]; Day 28): 20
- ABC-C speech ([1]; PT WC, Day 7, initial 1): 0
- ABC-C stereotypy ([1]; PT WC, Day 7, initial 12): 7
- ABC-C irritability ([1]; PT WC, Day 7, initial 16): 4
- ABC-C hyperactivity ([1]; PT WC, Day 7, initial 20): 10
- ABC-C lethargy ([1]; PT WC, Day 7, initial 21): 9
- ABC-C TOTAL ([1]; PT WC, Day 7, initial 70): 30
- ABC-C speech ([1]; PT WC, Day 14, initial 1): 0
- ABC-C stereotypy ([1]; PT WC, Day 14, initial 12): 6
- ABC-C irritability ([1]; PT WC, Day 14, initial 16): 2
- ABC-C hyperactivity ([1]; PT WC, Day 14, initial 20): 7
- ABC-C lethargy ([1]; PT WC, Day 14, initial 21): 3
- ABC-C TOTAL ([1]; PT WC, Day 14, initial 70): 18
- ABC-C speech ([1]; PT WC, Day 21, initial 1): 0
- ABC-C stereotypy ([1]; PT WC, Day 21, initial 12): 6
- ABC-C irritability ([1]; PT WC, Day 21, initial 16): 2
- ABC-C hyperactivity ([1]; PT WC, Day 21, initial 20): 7
- ABC-C lethargy ([1]; PT WC, Day 21, initial 21): 2
- ABC-C TOTAL ([1]; PT WC, Day 21, initial 70): 17
- ABC-C speech ([1]; PT WC, Day 28, initial 1): 0
- ABC-C stereotypy ([1]; PT WC, Day 28, initial 12): 6
- ABC-C irritability ([1]; PT WC, Day 28, initial 16): 2
- ABC-C hyperactivity ([1]; PT WC, Day 28, initial 20): 7
- ABC-C lethargy ([1]; PT WC, Day 28, initial 21): 2
- ABC-C TOTAL ([1]; PT WC, Day 28, initial 70): 17
- responder analysis for CGI-S ([2]; 100 mg and 200 mg groups vs placebo, Week 4): clear dose response trend of improvement
- mean improvement on overall CGI-S versus placebo and 100 mg groups ([2]; 200 mg group, Week 4 or LOCF): 0.5 point
- CGI-I Mean Change from Baseline ([2]; DB 100 mg TID): −0.6
- CGI-I Treatment effect versus placebo ([2]; DB 100 mg TID): −0.4
- CGI-I change from Baseline, median ([2]; DB 100 mg TID): −1, −1, 0
- CGI-S Mean Change from Baseline ([2]; DB 100 mg TID): −0.3
- CGI-S Treatment effect versus placebo ([2]; DB 100 mg TID): −0.0
- CGI-S change from Baseline, median ([2]; DB 100 mg TID): −1, −0, 0
- CGI-I Mean Change from Baseline ([2]; DB 200 mg TID): −0.5
- CGI-I Treatment effect versus placebo ([2]; DB 200 mg TID): −0.3
- CGI-I change from Baseline, median ([2]; DB 200 mg TID): −1, 0, 0
- CGI-S Mean Change from Baseline ([2]; DB 200 mg TID): −0.8
- CGI-S Treatment effect versus placebo ([2]; DB 200 mg TID): −0.5
- CGI-S change from Baseline, median ([2]; DB 200 mg TID): −2, −1, 0
- change in the CGI-S compared to baseline ([2]; less than one month of treatment, blinded assessment): nearly one-point change
